We go through one molecule from patent publication US12084459B2, “2-(4-{1-[6-(4-isopropyl-phenyl)-imidazo[2,1-b][1,3,4]thiadiazol-2-yl]-piperidin-4-ylmethyl}-piperazin-1-yl)-ethanol and use thereof” (Urifer Ltd., priority 2020, dated 2024).

The subject of series [1] is metastatic Triple negative MDA-MB-231 Breast cancer cells. Description: viability / killing of MDA-MB-231 cells. As to conditions: E266 versus E260; compound (I) as tartarate salt in 0.5% Tween-80; FIG. 5. It is filed as cell-based. The method, then: (§1) The compound (I), as tartarate salt was dissolved in 0.5% Tween-80 to affect the viability of several cell lines as follows.
(§2) The effect of the compound (I) (E266) on the growth profile of cancer cells which express Fer was tested. The cells that were tested were: the metastatic colon cancer cell line—SW620, the metastatic pancreatic ductal-adenocarcinoma SU.86.86 cancer cell-line—SU.86.86, the metastatic Triple Negative breast cancer cell line—MDA-MB-231, and the metastatic prostate cancer cell-line—PC3. The effect of the compound (I) (E266) on FS11 cells, a non malignant fibroblastic cell line, was also studied.

In another series the test system is normal Epithelial cells. Kind of series: effect on normal epithelial cells. It is filed as cell-based. The note with it: FIG. 2. The method, then:
Compound (I) was dissolved in 20% hydroxypropylcyclodextrane and the volume of administration (IP) was 10 ml/kg.

In series [2] the test system is metastatic pancreatic ductal adenocarcinoma Su.86.86 cancer cells. Kind of series: viability / killing of Su.86.86 cells. It is filed as cell-based. As to conditions: E266 versus E260; compound (I) as tartarate salt in 0.5% Tween-80; FIG. 4. As for the experimental part: as §1, §2
In another series the test system is H358 derived xenografts. Kind of series: H358 derived xenografts in Nude mice. As to conditions: 25 mg/kg daily intraperitoneal in 1% Tween 80, H358 xenografts, FIG. 7. The class given is in vivo. From the text:
In vivo activity of the E266 (compound (I) of the present application) compared to that of the E260 (EP 2401283) in H358 derived xenografts in immune-compromised (Nude) mice.
In order to compare the relative efficacy of E266 and E260 in inhibiting the development and progression of malignant tumors in-vivo, the activity in xenograft model in mice was examined for both compounds. H358 derived xenografts in immune-compromised were elicited in (Nude) mice. The H358 cells, which are metastatic bronchioloalveolar carcinoma (BAC)-non-small cell lung cancer (NSCLC) cells, were subcutaneously injected to the back of the nude mice. When the developing xenografts reached 100 mm^3 size, the inflicted animals were divided into three groups, 10 mice in each group. One group received daily intraperitoneal injection of the solvent 1% Tween 80. This solvent/emulsifier is biocompatible and is approved for pharmaceutical applications in humans. The second group received daily intraperitoneal injection of 25 mg/kg E260 dissolved in 1% Tween 80, and the third group got daily intraperitoneal injection of 25 mg/kg, E266 dissolved in the 1% Tween 80, solvent. The progression of the elicited xenografts was monitored by measuring twice a week the volumes of the developing tumors.

A short description of series [3]: insolubility level in PBS/Polysorbate-80 (Tween 80) solution. As to conditions: 0.5 mM and 1 mM in PBS/Polysorbate-80 (Tween 80) solution at 25° C. (FIG. 1A, 1B). It is filed as physicochemical.

SMILES strings stand for the structures.

Turning to `CC(C)c1ccc(-c2cn3nc(N4CCC(CN5CCN(CCO)CC5)CC4)sc3n2)cc1` [Compound E266, 2-(4-{1-[6-(4-isopropyl-phenyl)-imidazo[2,1-b][1,3,4]thiadiazol-2-yl]-piperidin-4-ylmethyl}-piperazin-1-yl)-ethanol], in series [1], the “killing metastatic Triple negative MDA-MB-231 Breast cancer cells” value is recorded as “comparable activity”. Besides, the “effect on normal Epithelial cells” value in the series with normal Epithelial cells is recorded as “no effect”. Besides, the “killing metastatic pancreatic ductal adenocarcinoma Su.86.86 cancer cells” value in series [2] is recorded as “comparable activity”. For the same molecule, the “progression of the developing tumors (xenograft volume)” value with H358 derived xenografts is recorded as “managed to halt the progression of the developing tumors”. Also, the “solubility (insolubility level)” value in series [3] is on record as “soluble to a certain extent”.
